Laboratory results taken from PMC5465257, “Evaluation of JNJ-54717793 a Novel Brain Penetrant Selective Orexin 1 Receptor Antagonist in Two Rat Models of Panic Attack Provocation” (Frontiers in Pharmacology, 2017).

Columns and labels:
[1] = tested on: panel of 50 receptors, ion channels and transporters; assay: Selectivity binding panel of 50 receptors, ion channels and transporters (Eurofins); conditions: at 10 μM; any receptor/transporter/ion channel other than the OX1R
Experimental: These assays were performed by Eurofins (Celles L’Evescault, France).

[2] = tested on: C57Bl6 OX2R knockout (KO) mice; assay: Sleep recording (EEG/EMG) in OX2R knockout mice; type: in vivo, mouse
Experimental: Sleep experiments were conducted in male Sprague-Dawley rats (350–450 g, Harlan Laboratories, Livermore, CA, United States) and in male C57Bl6 OX2R knockout (KO) and corresponding wild-type mice (30–35 g, Charles River Laboratories, San Diego, CA, United States) as described previously ([Dugovic et al., 2009]). Animals were chronically implanted with telemetric devices (Data Sciences International, St. Paul, MN, United States) for the recording of electroencephalogram (EEG) and electromyogram (EMG) signals. Polysomnographic waveforms were analyzed per 10-s epoch and classified as wake, non-rapid eye movement (NREM) or REM sleep by using the computer software program SleepSign (Kissei Comtec, Nagano, Japan). For each experiment, EEG and EMG signals were recorded for up to 6 h after administration of the tested compounds. Analysis of sleep parameters included latency to NREM sleep (defined as the time interval to the first six consecutive NREM epochs) and REM sleep (the first two consecutive REM epochs post-treatment), and the duration of NREM and REM.
Results were averaged and expressed as mean ± SEM in defined time intervals. To determine whether differences were significant at a given interval, either paired Student’s t-test or two-way analysis of variance (ANOVA) (interaction time × treatment), repeated measures followed by Bonferroni post hoc test was performed.
In the present study, the in vivo functional target engagement was investigated in a model of permanent inhibition of OX2R, and the effects of JNJ-5471773 on sleep-wake states were examined in mice lacking the OX2R relative to their corresponding wild-type mice. […] NREM sleep latency and duration were not affected in both genotypes (not shown).

[3] = tested on: Sprague-Dawley rats; assay: Sodium lactate panic provocation model (1-allyglycine treated rats)
Experimental: Experiments were performed in male Sprague-Dawley rats (300–350 g, Harlan Laboratory, Indianapolis, IN, United States). Prior to and during surgeries, rats were anesthetized with a nose cone connected to an isoflurane system (MGX Research Machine; Vetamic, Rossville, IN, United States). Radiotelemetry probes [Cat. no. HD-S11, Data Sciences International, St. Paul, MN, United States] were surgically implanted into the peritoneal cavity and sutured to the muscle wall in order to assess general motor activity. A pressure transducer was implanted into the femoral artery to assess cardiovascular responses [i.e., mean arterial blood pressure (MAP) and heart rate (HR)]. Rats were also fitted with femoral venous catheters for 0.5 M i.v. sodium lactate (NaLac) infusions, as previously described ([Shekhar et al., 1996]). After 3–5 days of recovery, rats were anesthetized and 26 gauge T-shaped cannulae (Cat. no. 3260PG, Plastics One, Inc., Roanoake, VA, United States) were directed at cardio-excitatory Perifornical hypothalamic area regions [([Shekhar and Keim, 1997]) bregma: 1.2 mm posterior, +2.1 mm lateral, +9.1 mm ventral and adjusted for approaching at a 10° angle toward the midline with the stereotaxic incisor bar elevated 5 mm above the interaural line] and cemented into place. The 22 gauge side arm was then attached, via PE-60 tubing, to an osmotic minipump (prefilled with 1-allyglycine solution chronically infused at 3.5 nmol/0.5 μl per hour) and sutured into place subcutaneously at the nape of the neck (DURECT Corporation, Model no. 2002).
Five days following 1-allyglycine infusion onset, in a counterbalanced design and with 48 h between crossover, rats were orally dosed with either JNJ-54717793 at 3, 10, or 30 mg/kg, or vehicle as a control group 60 min prior to the 15 min 0.5 M sodium lactate challenge. […] The data reported are changes in mean arterial blood pressure, HR, and activity from the average of the baseline (t-5 to t-1) from each rat.
Baseline SI testing was done 7–8 days following radiotelemetry surgery recovery, and repeated again 2–3 days later during drug treatment crossover. On experimental drug testing days, the SI test was performed 5 min after the offset of the sodium lactate challenge with different partners each time. The SI box dimension were 0.9 m long × 0.9 m wide × 0.3 m height. […] All behavioral tests were digitally videorecorded with a camera above the box. The “experimental” rat and an unfamiliar “partner” rat were both allowed to individually habituate to the box for a 5 min period 24 h prior to each SI test. During the SI test, the two rats were placed together in the center of the box, and the total duration (sec) of non-aggressive physical contact (grooming, sniffing, crawling over and under, etc.) initiated by the “experimental” rat is quantified over a 5 min duration. A baseline SI test was performed at least 72 h after i.v. catheterization, but prior to osmotic minipump implantation. Another SI test was performed 5 days following minipump infusions and immediately following saline or sodium lactate infusions. Video recorded sessions were scored at a later time by Stephanie D Fitz, whom was blind to any drug treatment.
Each dependent variable for assessment of behavior and radiotelemetry data was respectively analyzed using a one way ANOVA, or a one way ANOVA with repeated measures with drug treatment as the main factor and time as repeated measures. In the presence of significant main effects post hoc tests were conducted using a parametric Fisher’s LSD test. Within subjects time effects were also assessed using a Dunnett’s one way analysis with the minute prior to the i.v infusion used as the control.

[4] = target: T1, human OX2R (Homo sapiens, UniProt O43614); assay: Calcium mobilization functional assay, PFSK-1 cells, OX-B; type: cell-based
T1 sequence (O43614 1-444): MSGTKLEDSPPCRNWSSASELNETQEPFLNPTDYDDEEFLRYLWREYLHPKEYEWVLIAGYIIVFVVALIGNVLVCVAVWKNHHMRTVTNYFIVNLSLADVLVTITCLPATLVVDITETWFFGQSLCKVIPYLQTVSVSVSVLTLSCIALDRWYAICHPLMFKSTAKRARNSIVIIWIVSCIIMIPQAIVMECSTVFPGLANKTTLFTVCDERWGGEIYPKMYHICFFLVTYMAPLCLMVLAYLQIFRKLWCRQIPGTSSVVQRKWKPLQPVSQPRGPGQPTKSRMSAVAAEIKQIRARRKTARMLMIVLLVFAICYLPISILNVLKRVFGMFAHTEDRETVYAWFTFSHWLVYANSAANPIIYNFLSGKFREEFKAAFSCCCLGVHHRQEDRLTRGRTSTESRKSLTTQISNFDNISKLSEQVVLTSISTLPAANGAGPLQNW
Experimental: The human OX2R functional assay used PFSK-1 cells which are a human neuroectodermal cell line that innately expresses the OX2R. Since the intracellular calcium response is transient and not consistent with equilibrium assumptions, the assays were performed by giving a standard, EC80 dose of the OX agonist and calculating a pKB from inhibition of the agonist response by a dose range of the antagonists. The cells were plated in black 96 well tissue culture plates with clear bottoms at 50,000 cells/well and grown overnight at 37°C in 5% carbon dioxide (CO2). […] The cell plate was then transferred to the Molecular Devices Fluorometric Imaging Plate Reader (FLIPR) Tetra instrument, which adds the OX agonist and monitors changes in fluorescence which reflect intracellular calcium levels.
Results were calculated using GraphPad Prism (San Diego, CA, United States) software. Raw data from the FLIPR Tetra was exported as the difference between maximum and minimum fluorescence observed for each well. A non-linear regression was used to determine the agonist EC50 and antagonist IC50 for each plate, then the antagonist KB was calculated according to Cheng and Prusoff ([Cheng and Prusoff, 1973]).

[5] = rats, after sodium lactate challenge

## O=C(c1cccc(F)c1-c1ncccn1)N1[C@@H]2CC[C@H]1[C@H](Nc1cnc(C(F)(F)F)cn1)C2 [JNJ-54717793, (1S,2R,4R)-7-([(3-fluoro-2-pyrimidin-2-ylphenyl)carbonyl]-N-[5-(trifluoromethyl)pyrazin-2-yl]-7-azabicyclo[2.2.1]heptan-2-amine)]
[1]
  inhibition in selectivity panel: < 50%
[2]; 30 mg/kg oral (not shown)
  NREM sleep latency and duration: not affected
[2]; 30 mg/kg oral, first 6 h post-treatment, versus vehicle
  time spent in REM sleep: prolonged
[2]; 30 mg/kg oral, versus vehicle
  latency for REM sleep: significantly reduced
[3]; rats, 10 mg/kg p.o., t3 timepoint, no overall treatment effect
  sodium lactate-induced pressor response (MAP): attenuation of pressor response
[3]; rats, 3, 10, 30 mg/kg p.o., compared to vehicle
  sodium lactate-induced tachycardia (HR): did not attenuate
[3]; rats, 3, 10, 30 mg/kg p.o., sodium lactate did not increase locomotion
  locomotion: did not significantly alter
[3]; [5]
  center or middle times in the open field test: Nor was there an effect
  sedative effects (line crossings) in the open field test: no apparent sedative effects
[3]; rats, highest dose (30 mg/kg p.o.)
  sodium lactate-induced anxiety behavior in the SI test: attenuate/block
[4]
  Kb: 309 nM
